From PMC6556873, “Rapid Covalent-Probe Discovery by Electrophile-Fragment Screening” (Journal of the American Chemical Society, 2019)
Where two headings read alike, the source gives them in different places.

Tests used:
in vitro [1] = test: in vitro; design: species or system HB2, HEK293; settings: human, ccd841 cells
in vitro [2] = test: in vitro; design: species or system HB2, CCD841; settings: human, hek293 cells
in vitro [3] = test: in vitro; design: species or system CCD841, HEK293; settings: human, hb2 cells, read-out: HB-2 Cells Viability (%)
BSA = molecular target: T1, BSA (Bos taurus, UniProt P02769); design: Intact protein LC/MS covalent labelling, fragments in pools of five, 200 uM each, 4 °C; settings: 24 h, 4 °C, pool of five; 200 µM; covalent
T1 construct: gene ALB
Procedure: (§1) Incubations were performed at 200 μM for each compound and 2 μM of protein (10 μM for BSA) for 24 h at 4 °C with moderate shaking. Incubation buffers varied among proteins (PBS pH 7.4 for QSOX1 and BSA; 10 mM HEPES pH 7.5, 0.3 M NaCl, 0.5 mM TCEP for PCAF, UPS8, and NUDT7; […]; 10 mM Na2HPO4 pH 7.5 100 mM NaCl 5 mM β-mercaptoethanol for NV3CP; 20 mM Na phosphate pH 7.5 for NNMT; […]. The reaction was stopped by quenching with formic acid, 0.4% final concentration. Each protein was incubated with the electrophilic library in pools of five compounds per well. The pool’s composition maximized the difference in mass between fragments in the same well. Incubations were performed with each fragment at 200 μM, for 24 h at 4 °C, to allow the screening of proteins that are not stable for long time periods at higher temperatures. Following incubation, we used intact protein [compound left out] chromatography/mass spectrometry (LC/MS) to identify the fragments and quantify their labeling (Figure 3A). […] There was good agreement between the percent of labeling of NUDT7 by 100 random individual compounds and that obtained in pools of five (R^2=0.78; Figure S6 and Data set 2 in the Supporting Information).

NUDT7 = molecular target: T2, NUDT7 (Homo sapiens, UniProt P0C024); design: Intact protein LC/MS covalent labelling, fragments in pools of five, 200 uM each, 4 °C; settings: 24 h, 4 °C, pool of five; 200 µM; covalent
T2 construct: residues 14-235, E. coli, pNIC28-Bsa4, N-terminal His6 tag removed by TEV, construct 26672 Da
Procedure: as §1

PCAF = molecular target: T3, PCAF (Homo sapiens, UniProt Q92831); design: Intact protein LC/MS covalent labelling, fragments in pools of five, 200 uM each, 4 °C; settings: 24 h, 4 °C, pool of five; 200 µM; covalent
T3 construct: gene KAT2B
Procedure: as §1

OTUB2 (OTUB2A) = molecular target: T4, OTUB2 (OTUB2A) (Homo sapiens, UniProt Q96DC9); design: Intact protein LC/MS covalent labelling, fragments in pools of five, 200 uM each, 4 °C; settings: 24 h, 4 °C, pool of five; 200 µM; covalent
T4 construct: full length residues 1-234, E. coli BL21(DE3)-R3, His tag removed by TEV, construct 27312 Da
T4 sequence (Q96DC9 1-234): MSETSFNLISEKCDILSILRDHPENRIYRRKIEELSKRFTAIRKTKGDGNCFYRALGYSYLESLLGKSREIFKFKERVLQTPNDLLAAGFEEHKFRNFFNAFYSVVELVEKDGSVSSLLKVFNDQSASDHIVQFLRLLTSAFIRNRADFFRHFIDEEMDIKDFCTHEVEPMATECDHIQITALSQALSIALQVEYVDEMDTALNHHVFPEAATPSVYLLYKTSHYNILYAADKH
Procedure: as §1

T1 sequence (P02769 whole entry, the tested form may be a part): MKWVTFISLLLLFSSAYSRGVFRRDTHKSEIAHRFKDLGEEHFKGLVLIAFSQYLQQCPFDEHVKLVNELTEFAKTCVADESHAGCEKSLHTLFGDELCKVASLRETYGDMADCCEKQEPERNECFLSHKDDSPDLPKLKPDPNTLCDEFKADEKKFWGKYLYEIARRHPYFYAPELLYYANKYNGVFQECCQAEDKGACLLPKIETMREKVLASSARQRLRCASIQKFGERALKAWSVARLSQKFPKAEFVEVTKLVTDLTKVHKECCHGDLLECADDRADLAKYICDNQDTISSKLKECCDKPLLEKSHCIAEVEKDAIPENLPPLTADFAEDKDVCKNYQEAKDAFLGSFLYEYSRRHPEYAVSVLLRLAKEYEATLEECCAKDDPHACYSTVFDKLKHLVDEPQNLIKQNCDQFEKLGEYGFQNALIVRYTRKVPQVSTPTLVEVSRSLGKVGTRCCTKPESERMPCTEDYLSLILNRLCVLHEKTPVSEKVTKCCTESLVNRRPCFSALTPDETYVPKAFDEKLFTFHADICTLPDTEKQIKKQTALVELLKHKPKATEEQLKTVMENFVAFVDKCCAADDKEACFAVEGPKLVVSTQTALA
T2 sequence (P0C024 14-235): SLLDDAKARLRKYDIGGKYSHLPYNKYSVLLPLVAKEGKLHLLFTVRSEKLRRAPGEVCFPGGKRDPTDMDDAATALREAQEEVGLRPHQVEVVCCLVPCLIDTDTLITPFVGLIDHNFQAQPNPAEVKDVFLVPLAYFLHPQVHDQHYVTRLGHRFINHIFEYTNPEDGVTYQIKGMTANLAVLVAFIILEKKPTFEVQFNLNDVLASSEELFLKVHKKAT
T3 sequence (Q92831 whole entry, the tested form may be a part): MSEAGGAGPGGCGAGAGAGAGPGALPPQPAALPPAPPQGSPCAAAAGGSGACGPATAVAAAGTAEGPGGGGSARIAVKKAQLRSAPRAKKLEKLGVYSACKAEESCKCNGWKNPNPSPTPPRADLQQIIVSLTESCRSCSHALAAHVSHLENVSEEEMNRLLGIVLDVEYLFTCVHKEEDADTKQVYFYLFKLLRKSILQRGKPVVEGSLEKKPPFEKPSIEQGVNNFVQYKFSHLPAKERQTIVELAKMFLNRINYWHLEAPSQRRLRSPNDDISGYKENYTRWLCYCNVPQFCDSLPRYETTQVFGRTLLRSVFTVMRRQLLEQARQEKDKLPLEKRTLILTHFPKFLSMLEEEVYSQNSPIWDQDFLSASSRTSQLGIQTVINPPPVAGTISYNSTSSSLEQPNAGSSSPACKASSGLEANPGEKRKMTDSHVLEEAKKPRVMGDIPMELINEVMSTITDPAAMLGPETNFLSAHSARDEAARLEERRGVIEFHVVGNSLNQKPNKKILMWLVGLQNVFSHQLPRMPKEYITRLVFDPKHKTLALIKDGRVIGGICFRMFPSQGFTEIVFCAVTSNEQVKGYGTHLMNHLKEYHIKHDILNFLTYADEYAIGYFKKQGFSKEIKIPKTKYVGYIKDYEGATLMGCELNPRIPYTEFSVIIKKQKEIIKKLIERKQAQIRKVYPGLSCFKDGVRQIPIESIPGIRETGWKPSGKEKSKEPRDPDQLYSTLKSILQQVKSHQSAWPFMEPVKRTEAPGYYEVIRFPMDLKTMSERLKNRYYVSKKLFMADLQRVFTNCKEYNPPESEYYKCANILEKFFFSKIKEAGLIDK

BSA (BSA) | NUDT7 (NUDT7) | PCAF (PCAF) | OTUB2 (OTUB2 (OTUB2A)) | SMILES | viability at 48 h, 10 µM (in vitro [1]) | viability at 48 h, 10 µM (in vitro [2]) | viability at 48 h, 10 µM (in vitro [3])
0 | 0.09 | 0 | 0.12 | O=C(CCl)N1CCCc2cc([N+](=O)[O-])ccc21 [PCM-0102188] | 32.3% | 46.6% | 19.6%
0 | 0.42 | 0 | 0.37 | CC(NC(=O)CCl)c1cccc(Cl)c1 (stereo not drawn) [PCM-0102190] | 73.2% | 49.3% | 69.6%
0 | 0.09 | 0 | 0 | C=CC(=O)Nc1ccc(Br)cc1 [PCM-0102191] | 88.9% | 65.6% | 91.3%
0 | 0 | 0 | 0.31 | O=C(CCl)NCc1ccc(F)cc1 [PCM-0102192] | 76.1% | 77.8% | 86.9%
0 | 0 | 0 | 0 | O=C(CCl)N1CCN(S(=O)(=O)c2ccc3c(c2)CCC3)CC1 [PCM-0102193] | 20.9% | 2.8% | 2.7%
0 | 0 | 0 | 0 | O=C(CCl)Nc1ccc2c(c1)C(=O)c1ccccc1C2=O [PCM-0102194] | 13.7% | 0.7% | 1.4%
0 | 0 | 0 | 0 | O=C(CCl)NC(=O)c1ccco1 [PCM-0102195] | 109% | 87.3% | 98%
0 | 0.2 | 0 | 0.14 | Cc1ccc(NC(=O)CCl)c(Br)c1 [PCM-0102196] | 87.6% | 45.5% | 49.2%
0 | 0 | 0 | 0 | Cc1cc(NC(=O)CCl)on1 [PCM-0102197] | 87.9% | 68.5% | 74.3%
0 | 0.11 | 0 | 0 | COC(=O)c1c(NC(=O)CCl)sc2c1CCCCC2 [PCM-0102200] | 80.8% | 21.8% | 49.5%
0 | 0 | 0 | 0 | O=C(CCl)N1CCN(S(=O)(=O)c2c(F)cccc2F)CC1 [PCM-0102201] | 57.6% | 11.1% | 9.5%
0 | 0 | 0 | 0 | Cc1sc(NC(=O)CCl)c(C#N)c1C [PCM-0102202] | 55.2% | 14.4% | 32.8%
0 | 0 | 0 | 0 | NC(=O)C1CCCCN1C(=O)CCl (stereo not drawn) [PCM-0102203] | 75.3% | 50.7% | 79.7%
0 | 0 | 0 | 0 | COC(=O)c1ccc(NC(=O)CCl)cc1 [PCM-0102204] | 56.2% | 3.8% | 22.5%
0 | 0 | 0 | 0 | CCC1(C)NC(=O)N(NC(=O)CCl)C1=O (stereo not drawn) [PCM-0102205] | 85.3% | 88% | 96.9%
